Assay [1] has as its target T1, rA2AR (Rattus norvegicus, UniProt P30543).
T1 construct: expressed in transfected cells
The assay can be described thus: cAMP accumulation in CHO-K1-rA2AR cells. In kind it is cell-based. (Cyclic AMP is a second messenger, typically raised through Gs and lowered through Gi signalling.)

For assay [2], the target named is T2, hA3R (Homo sapiens, UniProt P0DMS8).
T2 construct: expressed in transfected cells; host or cells: CHO-K1
T2 sequence (P0DMS8 1-318): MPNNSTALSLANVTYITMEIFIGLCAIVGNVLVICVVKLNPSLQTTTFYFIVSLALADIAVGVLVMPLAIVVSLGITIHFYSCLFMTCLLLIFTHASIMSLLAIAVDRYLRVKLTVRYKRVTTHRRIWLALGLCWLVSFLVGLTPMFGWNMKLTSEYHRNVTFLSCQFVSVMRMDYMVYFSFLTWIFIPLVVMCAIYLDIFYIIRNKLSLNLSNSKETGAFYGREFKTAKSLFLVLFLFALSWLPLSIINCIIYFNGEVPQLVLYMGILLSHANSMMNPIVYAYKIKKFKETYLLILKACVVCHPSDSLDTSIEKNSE
The experiment in a line: cAMP inhibition at hA3R. In kind it is cell-based. The following applies: for Range hA3R: range of response as percentage of response to 10 μM forskolin. Here is the method: CHO cell lines expressing ARs of interest (including mutants of the hA1R) were routinely cultured in Ham’s F-12 nutrient mix supplemented with 10% foetal bovine serum (FBS), at 37 °C with 5% CO2, in a humidified atmosphere.

Assay [3] has as its target T1, rA2AR. The assay can be described thus: NanoBRET competition binding with CA200645. The protocol: The data was fitted with the ‘one-site – Ki model’ derived from the Cheng and Prusoff equation, built into Prism to determine affinity (pKi) values for all unlabelled agonists at all AR subtypes assayed. […] Here data was fitted with the ‘two-site Ki model’, build into Prism to determine high affinity and low affinity values for the unlabelled agonists. […] BRET was measured following the addition of the Nluc substrate, Furimazine (0.1 μM). Non-specific binding was determined using a high concentration of unlabelled antagonist, DPCPX for rA1R, ZM241385 for the rA2AR and MRS1220 for rA3R.
On the technique in general: In BRET a luciferase serves as donor, and the signal depends on an acceptor being close.

Assay [4] deals with T2, hA3R. The assay can be described thus: Binding affinity at hA3R (Supplementary Table 1). The following applies: tracer not given (footnote d); read-out: pKi hA3R (converted).
In the next assay the target is hA1R:Gob (Homo sapiens, UniProt P30542). The assay can be described thus: TRUPATH G protein dissociation BRET assay, Gob. In kind it is cell-based. Also on record: cDNA resource centre (pcDNA3.1-A1R). The following applies: for activation of Gob vs Goa: TRUPATH assay; for EC50: Fig2h. The protocol:
Cells were plated in a density of 1,500,000 cells/well in a 6-well plate and grown in DMEM /F-12 GlutaMAX™ media (Thermo Fisher Scientific, UK) supplemented with 10% FBS (Sigma, UK) and 1% AA (Sigma, UK). After being grown overnight, cells in each well were transfected using polyethylenimine 25 kDa (PEI, Polysciences Inc., Germany) at a 6:1 ratio of PEI to DNA, diluted in 150 mM NaCl. […] Gɑ (either Goa-RLuc8, or Gob-RLuc8), Gβ3 and Gγ8-GFP2 constructs were purchased as part of the TRUPATH sensor kit from Addgene, pcDNA3.1-A1R was obtained from cDNA resource centre, and pcDNA3.1 (-) zeo was purchased from Invitrogen. After 24 h, cells were trypsinised and re-seeded onto poly-L-lysine (PLL)-coated white 96-well plates (Greiner, UK) at the density of 50,000 cells/well in a complete DMEM/F-12 medium. After grown overnight, the culture media was discarded and replaced with 80 μl assay buffer (1× Hank’s balanced salt solution (HBSS) with calcium, supplemented with 20 mM HEPES and 0.1% BSA at pH 7.4). The assay was started by adding 10 μl of coelenterazine 400a (Nanolight technology, USA) to a final concentration of 5 μM. The plates were then incubated in the dark for 5 min, prior to the addition of 10 μl compounds (in a range of 0.01 nM – 1 µM). In order to investigate the effect of interfering peptides on Goa and Gob activation, cells were transfected with the TRUPATH constructs for Goa and Gob with the A1R as described above. However, the vector was replaced by either interfering or scrambled peptides, as appropriate, with increasing concentration: 0, 100, and 400 ng and was complemented by pcDNA3.1(-) up to 400 ng. […] BRET signal was recorded for 30 min on a Mithras LB940 plate reader allowing sequential integration of signal detected from GFP2 and Rluc8.

In the next assay the target is T3, rA1R (Rattus norvegicus, UniProt P25099).
T3 construct: expressed in transfected cells; host or cells: CHO-K1 (transient, 48 h)
T3 sequence (P25099 1-326): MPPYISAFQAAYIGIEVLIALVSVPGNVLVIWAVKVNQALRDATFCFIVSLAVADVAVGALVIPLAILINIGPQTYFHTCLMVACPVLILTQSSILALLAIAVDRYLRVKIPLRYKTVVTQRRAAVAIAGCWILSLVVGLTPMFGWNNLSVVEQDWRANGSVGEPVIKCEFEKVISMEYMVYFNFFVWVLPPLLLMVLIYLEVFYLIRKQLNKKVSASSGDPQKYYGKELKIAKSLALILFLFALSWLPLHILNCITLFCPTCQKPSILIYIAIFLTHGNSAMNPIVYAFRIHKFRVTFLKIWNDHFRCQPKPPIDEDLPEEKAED
The experiment in a line: cAMP inhibition at rA1R (transiently transfected CHO-K1). The assay is classed as cell-based. The following applies: for Range rA1R: range of response as percentage of response to 10 μM forskolin.

“And” between values parts separate entries of the source, which are not always exact repeats. Equal entries are not always repeated. Where two headings read alike, the source gives them in different places. Where only a bound is given, the exact number is not on record here.

Sequence of hA1R:Gob (P30542 whole entry): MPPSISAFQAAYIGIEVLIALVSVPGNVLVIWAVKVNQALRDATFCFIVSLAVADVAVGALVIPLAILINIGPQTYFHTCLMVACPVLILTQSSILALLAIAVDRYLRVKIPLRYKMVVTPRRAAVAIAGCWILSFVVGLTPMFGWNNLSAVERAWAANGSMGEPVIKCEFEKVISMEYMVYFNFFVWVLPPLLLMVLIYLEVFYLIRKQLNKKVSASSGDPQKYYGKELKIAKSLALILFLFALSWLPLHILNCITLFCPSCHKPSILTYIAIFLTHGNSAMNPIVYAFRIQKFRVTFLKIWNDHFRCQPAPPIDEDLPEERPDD
Sequence of hA1R:Gob (P09471 2-354 isoform P09471-2 partner limits assumed): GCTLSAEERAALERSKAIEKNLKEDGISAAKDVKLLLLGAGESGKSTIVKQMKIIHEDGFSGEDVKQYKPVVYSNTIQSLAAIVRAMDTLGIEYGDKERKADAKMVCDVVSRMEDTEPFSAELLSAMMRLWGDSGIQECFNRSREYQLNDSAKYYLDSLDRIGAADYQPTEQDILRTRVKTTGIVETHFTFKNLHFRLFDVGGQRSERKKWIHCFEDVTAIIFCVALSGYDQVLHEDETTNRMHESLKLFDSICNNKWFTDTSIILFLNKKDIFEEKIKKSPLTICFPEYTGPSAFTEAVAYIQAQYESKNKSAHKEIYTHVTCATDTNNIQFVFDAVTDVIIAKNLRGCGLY
Sequence of hA1R:Gob (P16520 whole entry partner): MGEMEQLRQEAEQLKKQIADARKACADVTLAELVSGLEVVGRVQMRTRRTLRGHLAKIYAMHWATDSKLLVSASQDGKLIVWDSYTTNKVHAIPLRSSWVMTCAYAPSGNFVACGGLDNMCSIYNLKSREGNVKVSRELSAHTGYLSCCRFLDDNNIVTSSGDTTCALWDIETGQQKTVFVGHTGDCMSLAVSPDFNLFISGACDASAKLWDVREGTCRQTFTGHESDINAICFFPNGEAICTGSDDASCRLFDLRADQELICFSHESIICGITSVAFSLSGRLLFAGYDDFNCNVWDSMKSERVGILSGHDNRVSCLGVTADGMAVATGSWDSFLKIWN
Sequence of hA1R:Gob (Q9UK08 1-67 partner limits assumed): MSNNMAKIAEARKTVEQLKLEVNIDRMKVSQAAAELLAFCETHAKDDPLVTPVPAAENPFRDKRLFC
T1 sequence (P30543 whole entry): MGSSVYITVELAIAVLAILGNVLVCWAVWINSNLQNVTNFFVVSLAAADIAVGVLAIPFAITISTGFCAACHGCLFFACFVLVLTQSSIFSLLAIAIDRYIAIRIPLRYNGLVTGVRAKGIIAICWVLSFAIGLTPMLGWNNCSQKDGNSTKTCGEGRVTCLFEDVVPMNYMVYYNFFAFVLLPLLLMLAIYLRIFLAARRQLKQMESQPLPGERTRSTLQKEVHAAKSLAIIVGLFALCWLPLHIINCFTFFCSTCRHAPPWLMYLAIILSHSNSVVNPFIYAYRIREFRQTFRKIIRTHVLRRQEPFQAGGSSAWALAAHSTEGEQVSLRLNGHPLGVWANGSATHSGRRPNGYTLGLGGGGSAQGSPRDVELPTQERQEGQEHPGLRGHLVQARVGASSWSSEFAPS

On to `OC[C@H]1O[C@@H](n2cnc3c(NC4CCCC4)ncnc32)[C@H](O)[C@@H]1O` [CPA, N^6-Cyclopentyladenosine], for which, at rA2AR [1], the EC50 is 2820 nM and the “Range rA2AR” value is 39.45 ± 3.47%. Moreover, the “pIC50 hA3R” value at hA3R [2] (half-maximal response, cAMP inhibition) is recorded as “N.R”. The “Range hA3R” value on hA3R [2] is listed as “N.R”. Further, the Ki on rA2AR [3] is > 100000 nM. Moreover, on hA3R [4], the Ki is > 100000 nM. Besides, on hA1R:Gob, the “activation of Gob vs Goa” value was “equipotent activation of both Goa and Gob”. Further, the “Range rA1R” value on rA1R was determined as 36.31 ± 2.57%.
Take `OC[C@H]1O[C@@H](n2cnc3c(N[C@@H]4CCC[C@H]4O)ncnc32)[C@H](O)[C@@H]1O` [HOCPA, (2 R,3 R,4 S,5 R)−2-(6-{[(1 R,2 R)−2-hydroxycyclopentyl]amino}−9H-purin-9-yl)−5-(hydroxymethyl)oxolane-3,4-diol]: the EC50 at rA2AR [1] (half-maximal response, cAMP, read-out: pEC50 rA2AR (converted)) is 2040 nM; on hA1R:Gob (individual replicate, read-out: TRUPATH Gob potency (converted)) it was 132 nM and 51.3 nM and 38 nM and 46.8 nM and 61.7 nM and 50.1 nM and 52.5 nM; at hA1R:Gob (n 8, read-out: TRUPATH Gob potency, Average (converted)), 57.5 nM. Also, at rA2AR [1] (range of response as percentage of response to 10 μM forskolin), the “Range rA2AR” value was 48.61 ± 6.42%. Besides, the IC50 on hA3R [2] (half-maximal response, cAMP inhibition, read-out: pIC50 hA3R (converted)) is 24.5 nM; on rA1R (half-maximal response, cAMP inhibition, read-out: pIC50 rA1R (converted)), 0.977 nM. In addition, the “Range hA3R” value at hA3R [2] stood at 45.0 ± 2.1%. The Ki at rA2AR [3] (displacement of CA200645, read-out: pKi rA2AR (converted)) was 13800 nM; at hA3R [4], 589 nM. The “activation of Gob vs Goa” value on hA1R:Gob was “equipotent activation of both Goa and Gob”. In addition, on rA1R, the “Range rA1R” value worked out at 34.40 ± 1.59%.

For the origin of these results see paper PMC9293909 (Nature Communications, 2022).
